# In patent US5763596A, “C-4' modified adenosine kinase inhibitors” (Metabasis Therapeutics, Inc., priority 1996, dated 1998):
# What was measured:
# male Lewis rats = experiment: adjuvant arthritis; assay type: in vivo, rat
# Experimental: Heat-killed Mycobacterium butyricum was ground to a find powder and suspended in heavy mineral oil at 10 mg/ml. The suspension was injected subcutaneously into the base of the tail of male Lewis rats at 0.1 ml per rat. This immunization procedure induces an agressive arthritis that is apparent at day 10-12 and rapidly worsens. The volumes of the hind paws were measured before immunization and on days 12, 15 and 20 after immunization. The baseline paw volume was subtracted from the arthritic volumes to yield paw swelling. AK inhibitors were given by daily oral gavage beginning on day 4 after immunization, using polyethylene glycol-400 as the vehicle. Control rats received vehicle only. Percent inhibition was calculated based on paw swelling in AK inhibitor treated group compared to vehicle treated group, and is reported in Table 11.
# Female SA rats = experiment: liver toxicity, serum SGOT, SGPT and total bilirubin; assay type: in vivo, rat; set-up: unit not given here; conditions: 2 x 37.5 μmol/kg i.v. infusion (total 75 μmol/kg), 12 h after second dose
# Experimental: Female SA rats (150-200 g) were anesthetized with halothane and cannulated via the internal jugular vein. The animals were allowed to recover for 3 days. […] Twelve hours later, an additional 37.5 μmol kg was infused over 40 minutes (total dose=75 μmol/kg). Twelve hours after the second dose, the animals were anesthetized with halothane and exsanguinated through the descending aorta. Serum was prepared and liver enzymes (serum glutamic-oxaloacetic transaminase (SGOT), serum glutamic-pyruvic transaminase (SGPT)) and total bilirubin in the serum samples were determined by a commercial laboratory.
# Rats (male, Simonsen) = experiment: formalin paw model; assay type: in vivo, rat; set-up: concentration or dose not given beside the values; conditions: oral, 90 min before formalin
# Experimental: In this assay, injection of formalin, an irritant, into the hindpaw of rats typically evokes a biphasic response of pain-related behaviors. Phase 1 of the response which is brief, lasting approximately 0-5 min post-injection,is followed by a more prolonged phase 2, lasting approximately 10-80 min post-injection. Phase 1 behavior is thought to be a direct effect of the irritant on nociceptors at the injection site while phase 2 behavior is thought to include a hyperalgesic component mediated by sensitization of neuronal elements within the spinal cord. Studies from other laboratories have found the first portion of Phase 2 (sometimes referred to as Phase 2a) to be most responsive to pharmacological manipulation.
# Rats (male, Simonsen) weighing between 100-200 g, are used in the present experiments. For screening purposes drugs are administered orally 90 min prior to initiation of formalin test. At designated intervals the animals in groups of 4 are placed individually in a small animal restrainer with the right hindpaw accessible through a hole in the bottom of the restrainer. The formalin paw assay is initiated by the injection using a 30G needle of 50 μl of a 5% formalin solution in saline into the right plantar surface of each hindpaw. The rat is then immediately placed in a separate plexiglass box and scoring (described below) of the animal's behavior is begun at 1.7 min after formalin injection. The instantaneous behavior of each animal in a group of 4 was observed and assigned a score once in each 20 second interval. This sequence is repeated over a 30 min period. The scoring protocol is an adaptation of the method published by Dubuisson and Dennis (Pain 4:161-174, 1977) which assigns a score from 0-3 as follows:
# 0--no discernible favoring of injected paw, weight evenly distributed
# 1--injected paw is favored, rests lightly on floor
# 2--injected paw is elevated
# 3--injected paw is vigorously licked, bitten or shake
# Scores are continuously recorded directly onto an Excel spreadsheet. […] 2) the total number of incidences specifically of licking/biting behavior is summed over Phase 2 and mean values determined from 6 different animals with results expressed as % inhibition compared to vehicle control.
# Rats = experiment: anti-inflammatory activity, carrageenan paw; assay type: in vivo, rat; conditions: 10 mg/kg, swelling after 3 hours
# Experimental: Carrageenan (Type λ) was suspended in sterile PBS at 1% (w/v), autoclaved for 30 minutes, and stored at room temperature. Rats were pretreated with vehicle or AK inhibitor (10 mg/kg) by oral gavage or i.p. administration and the volume of the left hind paw was measured using a water displacement plethysmometer (Stoelting Co., Wood Dale, Ill.). One hour after oral treatment or 30 minutes after i.p. treatment, the rats were briefly anaesthetized, and 0.1 ml of the carrageenan solution was injected subcutaneously into the planar surface of the left hind paw. The ensuing paw swelling was measured by plethysmometry after 3 hours. The paw volume in milliliters was subtracted from the pre-injection paw volume. Data are presented in Table 8 as the percent inhibition of paw swelling in AK inhibitor treated animals, compared to vehicle treated control animals.
# male SA rats = experiment: anticonvulsant activity, maximal electroshock (MES) model; assay type: in vivo; conditions: Rattus norvegicus, ip, 1 h before MES; >5 / <5: fewer / more than 50% of animals inhibited at 5 mg/kg in initial screen
# Experimental: The anticonvulsant activity of the tested compounds was evaluated in male SA rats (100-150 g, Simonsen) using the maximal electroshock (MES) model described in Swinyard et al., Antiepileptic Drugs, 3d Ed. at 85-102 (Levy, et al., eds.), NY: Raven Press (1989). The rats were maintained on a 12/12 light/dark cycle in temperature controlled facilities with free access to food and water. For p.o. administration, the animals are fasted overnight, prior to the experiment. One hour prior to seizure testing, the animals were injected interperitoneally (ip) or orally (per os, po) with one of various doses of test compound dissolved in DMSO or PEG 400.
# Maximal electroshock seizures (MES) were induced by administering a 150 mA, 60 Hz current for 0.2 seconds via corneal electrodes using a Wahlquist Model H stimulator. […] This endpoint was expressed as the percentage of animals in which the response was inhibited. Typically, compounds were screened initially at one hour following a dose of 5 mg/kg ip. […] The results for exemplary compounds of the invention are set forth in Table 8, expressed as ED50 values.
# [1] = 10 mg/kg daily oral gavage from day 4
# [2] = 20 mg/kg daily oral gavage from day 4
structure (smiles),measurement,setting,value
O[C@@H]1[C@H](O)CO[C@H]1n1cc(-c2ccccc2)c2c(Nc3ccc(F)cc3)ncnc21 [compound 28],% inh at day 12 (paw swelling),male Lewis rats; [1],29 ± 7%
same,% inh at day 15 (paw swelling),male Lewis rats; [1],22 ± 4%
same,% inh at day 12 (paw swelling),male Lewis rats; [2],52 ± 23%
same,% inh at day 15 (paw swelling),male Lewis rats; [2],52 ± 22%
same,% inh at day 20 (paw swelling),male Lewis rats; [2],40 ± 8%
same,average serum Total Bilirubin,Female SA rats,0.07
same,average serum content of SGOT,Female SA rats,61
same,average serum content of SGPT,Female SA rats,23
same,% Inhibition Phase 1 Composite score,"Rats (male, Simonsen); 1.7-5 min post-formalin",9.2%
same,% Inhibition Phase 2 Composite score,"Rats (male, Simonsen); 10.3-30 min post-formalin",37.4%
same,% Inhibition Phase 2. Licking/biting,"Rats (male, Simonsen); Phase 2",76.1%
same,Carrageenan Paw (% inh) i.p.,"Rats; i.p., 30 min before carrageenan",52%
same,Carrageenan Paw (% inh) p.o.,"Rats; p.o., 1 h before carrageenan",25%
same,ED50 at 5 mg/kg,male SA rats,< 5 mg/kg
